According to US20260176252A1, “IONIZABLE LIPIDS WITH BRANCHED HEAD GROUPS” (Beam Therapeutics Inc., priority 2023, published 2026):

How the values were obtained:
[1] = system: ALAS1 target site; assay: In vivo base editing with LNP-delivered ABE mRNA and sgRNA targeting ALAS1; conditions: Balb/c mice, IV tail vein, 4 days after dosing; for Liver Editing A->G (%): ALAS1, liver; for Quadracept Editing A->G (%): ALAS1, Quadracept (muscle)
Protocol: Exemplary LNP preparations are selected to determine each preparation's ability to perform base editing in a Balb/C mouse model as described herein.
Lipid nanoparticle components are dissolved in 100% ethanol at specified lipid component molar ratios. mRNA encoding an adenine base editor and a chemically-modified sgRNA is dissolved at a mass ratio of 1:1 in 10 mM citrate, 100 mM NaCl, pH 4.0, resulting in a concentration of NA cargo of approximately 0.22 mg/mL. LNP preparations are formulated with molar ratios of either 50% Ionizable Lipid:38.5% Cholesterol:1.5% PEG2000-DMG: 10% DSPC or 47.5% Ionizable Lipid:40% Cholesterol:2.5% PEG2000-DMG: 10% DSPC both at a total lipid to NA molar ratio of 6.
(§1) LNP preparations are formed by microfluidic mixing of the lipid and NA solutions using a Precision Nanosystems NanoAssemblr Ignite Instrument, according to the manufacturer's protocol. A 3:1 ratio of aqueous to organic solvent is maintained during mixing using differential flow rates. After mixing, LNP preparations are collected, diluted in PBS (approximately 2:1 v/v), and further buffer exchange is conducted using dialysis in PBS at 4° C. for 8 to 24 hours against a 20 kDa filter. After this initial dialysis, each individual LNP preparation is characterized via dynamic light scattering (DLS) to measure size and polydispersity. pKa of a subpopulation of LNP preparations is measured via TNS assay. After dialysis, LNP preparations are sterile filtered using 0.22 micron sterile filter and stored at 4° C. for further use. In some embodiments, LNP preparations may be concentrated using 100 kDa Amicon filters per manufacturer's protocol.
Male Balb/C mice aged approximately 8-12 weeks are used in the experiments described herein. Each mouse is temporarily restrained, and LNP preparations are administered IV via tail vein injection. Age-matched mice are also used to administer vehicle (1×PBS) via tail vein injection as a control. Four to six days post-dose, tissues including liver, spleen, heart and muscle are collected (only liver and muscle (quardracept) are reported). Genomic DNA is isolated and fragmented and adapter-ligated using the Nextera DNA Flex Library Prep Kit (Illumina) using the 96-well plate Nextera indexing primers (Illumina), according to the manufacturer's instructions. Library size and concentration is confirmed by Fragment Analyzer (Agilent) and sent to Novogene for whole genome sequencing using an Illumina HiSeq.
For base editing, mRNA encoding an adenine base editor (ABE) and a guide RNA (sgRNA) targeting ALAS1 at 1:1 (mass ratio) are coencapsulated in LNP preparations as described herein. LNP preparations are administrated into Balb/c mice through tail vein injections at concentrations ranging from 0.05 to 3.0 mg/kg total RNA. At 4 days after dosing, mice are euthanized and liver, spleen and bone barrow are harvested. Base editing is determined by performing targeted deep sequencing analysis at the ALAS1 target site using extracted genomic DNA.

[2] = Encapsulation efficiency of LNP preparations (unlysed and lysed LNPs); assay type: physicochemical; conditions: for AVG EE(%): Table A, LNP 47.5% Ionizable Lipid:40% cholesterol:2.5% PEG-2000 DMG:10% DPSC, N/P 4.5-6, NA cargo with barcode
Protocol: Concentration of NA is determined by Qubit microRNA kit (for siRNA) or HS RNA kit (for mRNA) per manufacturer's instructions. Encapsulation efficiency is determined by measuring unlysed and lysed LNPs.

[3] = Dynamic light scattering (DLS) of LNP preparations: size (diameter) and polydispersity; assay type: physicochemical; conditions: for AVG PDI / AVG Z Dia (nm): Table A, LNP 47.5% Ionizable Lipid:40% cholesterol:2.5% PEG-2000 DMG:10% DPSC, N/P 4.5-6
Protocol: A ratio of aqueous to organic solvent of approximately 2:1 or 3:1 was maintained during mixing using differential flow rates. After mixing, LNP preparations were collected, diluted in phosphate buffer saline (PBS) or Tris-buffered saline (TBS) (approximately 1:1 v/v). Further buffer exchange was conducted using dialysis in PBS or TBS at 4° C. for 4 to 24 hours against a 20 kDa filter. After this initial dialysis, each individual LNP preparation may be characterized via dynamic light scattering (DLS) to measure the size (e.g., diameter) and polydispersity. LNP preparations falling within specific diameter and polydispersity ranges were pooled, and further dialyzed against PBS or TBS at 4° C. for 1 to 4 hours against a 100 kDa dialysis cassette. After the second dialysis, LNP preparations were sterile filtered using 0.22 μm filter and stored at 4° C. for further use.
as §1
DLS-LNP preparation hydrodynamic diameter and polydispersity index (PDI) is measured using high throughput dynamic light scattering (DLS) (DynaPro plate reader II, Wyatt). LNP preparations are diluted 1×PBS to an appropriate concentration and analyzed.

[4] = pKa of LNP preparations via TNS assay; assay type: physicochemical; conditions: Table D; LNP formulation ratio 47.5:40:2.5:10
Protocol: as §1

[5] = Table C, LNP formulation ratio 47.5:40:2.5:10, ABE mRNA + ALAS1 sgRNA 1:1
[6] = Table D, LNP formulation ratio 47.5:40:2.5:10, ABE mRNA + PCSK9 sgRNA 1:1

Molecule	EE (%) [2, 5] [%]	Diameter (nm) [3, 5] [nm]	PDI (%) [3, 5] [%]	EE (%) [2, 6] [%]	Diameter (nm) [3, 6] [nm]	pKa [4]	further results
7,7′-bis(2-(pent-4-en-1-yl)hept-6-en-1-yl) O′1,O1-(2-(((4-(((2-(pyrrolidin-1-yl)ethyl)carbamoyl)oxy)decanoyl)oxy)methyl)propane-1,3-diyl) di(heptanedioate) [Example 4]	87.2	124.45	10.6	–	–	–	Liver Editing A->G (%) ([1]; Dose 0.05 MPK total RNA): 1.59%
C=CCCCCCC(CCCCCC=C)OC(=O)CCCCCC(=O)OCC(COC(=O)CCCCCC(=O)OC(CCCCCC=C)CCCCCC=C)COC(=O)CCC(CCCCC)OC(=O)NCCN1CCCC1 (stereo not shown) [Example 2, 7,7′-di(pentadeca-1,14-dien-8-yl) O′1,O1-(2-(((4-(((2-(pyrrolidin-1-yl)ethyl)carbamoyl)oxy)nonanoyl)oxy)methyl)propane-1,3-diyl) di(heptanedioate)]	95.75	64.4	8.2	–	–	–	Quadracept Editing A->G (%) ([1]; Dose 1.5 MPK total RNA): 1.7%; Liver Editing A->G (%) ([1]; Dose 1.5 MPK total RNA): 86.3%; AVG EE(%) [2]: 90.7%; AVG PDI [3]: 0.09; AVG Z Dia (nm) [3]: 78.76 nm
C=CCCCCCC(CCCCCC=C)COC(=O)CCCCC(=O)OCC(COC(=O)CCCCC(=O)OCC(CCCCCC=C)CCCCCC=C)COC(=O)CCC(CCCCCC)OC(=O)NCCN1CCCC1 (stereo not shown) [Example 5, bis(2-(hept-6-en-1-yl)non-8-en-1-yl) O,O′-(2-(((4-(((2-(pyrrolidin-1-yl)ethyl)carbamoyl)oxy)decanoyl)oxy)methyl)propane-1,3-diyl) diadipate]	95.84	64.5	8.2	–	–	–	Quadracept Editing A->G (%) ([1]; Dose 1.5 MPK total RNA): 1.5%; Liver Editing A->G (%) ([1]; Dose 1.5 MPK total RNA): 79.8%; AVG EE(%) [2]: 93.9%; AVG PDI [3]: 0.08; AVG Z Dia (nm) [3]: 79.74 nm
CC/C=C\CCCC(CCC/C=C\CC)OC(=O)CCCCCC(=O)OCC(COC(=O)CCCCCC(=O)OC(CCC/C=C\CC)CCC/C=C\CC)COC(=O)CCC(CCCCCC)OC(=O)NCCN1CCCC1 (stereo not shown) [Example 6, 7,7′-di((3Z,12Z)-pentadeca-3,12-dien-8-yl) O′1,O1-(2-(((4-(((2-(pyrrolidin-1-yl)ethyl)carbamoyl)oxy)decanoyl)oxy)methyl)propane-1,3-diyl) di(heptanedioate)]	95.5	71	10.8	–	–	–	Quadracept Editing A->G (%) ([1]; Dose 1.5 MPK total RNA): 2.5%; Liver Editing A->G (%) ([1]; Dose 1.5 MPK total RNA): 88.7%
CCCCCCC(CCC(=O)OCC(COC(=O)CCCCCC(=O)OC/C=C(\C)CCC=C(C)C)COC(=O)CCCCCC(=O)OC/C=C(\C)CCC=C(C)C)OC(=O)NCCN1CCCC1 (stereo not shown) [Example 7, 1-(2E)-3,7-dimethylocta-2,6-dien-1-yl 7-{3-[(7-{[(2E)-3,7-dimethylocta-2,6-dien-1-yl]oxy}-7-oxoheptanoyl)oxy]-2-({[4-({[2-(pyrrolidin-1-yl)ethyl]carbamoyl}oxy)decanoyl]oxy}methyl)propyl}heptanedioate]	–	–	–	91.7	134.3	7.17	–
CCCCCCC(CCC(=O)OCC(COC(=O)CCCCCC(=O)OCCC(C)CCCC(C)C)COC(=O)CCCCCC(=O)OCCC(C)CCCC(C)C)OC(=O)NCCN1CCCC1 (stereo not shown) [Example 8, 1-(3,7-Dimethyloctyl)-7-[3-({7-[(3,7-dimethyloctyl)oxy]-7-oxoheptanoyl}oxy)-2-({[4-({[2-(pyrrolidin-1-yl)ethyl]carbamoyl}oxy)decanoyl]oxy}methyl)propyl]heptanedioate]	–	–	–	94.3	110.35	6.74	–
CCCCCCC(CCC(=O)OCC(COC(=O)CCCCCC(=O)OCCC(C)CCC=C(C)C)COC(=O)CCCCCC(=O)OCCC(C)CCC=C(C)C)OC(=O)NCCN1CCCC1 (stereo not shown) [Example 9, 1-(3,7-dimethyloct-6-en-1-yl) 7-[3-({7-[(3,7-dimethyloct-6-en-1-yl)oxy]-7-oxoheptanoyl}oxy)-2-({[4-({[2-(pyrrolidine-1-yl)ethyl]carbamoyl}oxy)decanoyl]oxy}methyl)propyl]heptanedioate]	–	–	–	85.3	148.65	6.85	–
C=CC(C)(CCC=C(C)C)OC(=O)CCCCCC(=O)OCC(COC(=O)CCCCCC(=O)OC(C)(C=C)CCC=C(C)C)COC(=O)CCC(CCCCCC)OC(=O)NCCN1CCCC1 (stereo not shown) [Example 10, 1-(3,7-dimethylocta-1,6-dien-3-yl)-7-[3-({7-[(3,7-dimethylocta-1,6-dien-3-yl)oxy]-7-oxoheptanoyl}oxy)-2-({[4-({[2-(pyrrolidin-1-yl)ethyl]carbamoyl}oxy)decanoyl]oxy}methyl)propyl]heptanedioate]	–	–	–	99.1	135.28	6.814	–
CCCCCCC(CCC(=O)OCC(COC(=O)CCCCCC(=O)OC/C=C(/C)CCC=C(C)C)COC(=O)CCCCCC(=O)OC/C=C(/C)CCC=C(C)C)OC(=O)NCCN1CCCC1 (stereo not shown) [Example 11, 1-(2Z)-3,7-dimethylocta-2,6-dien-1-yl-7-{3-[(7-{[(2Z)-3,7-dimethylocta-2,6-dien-1-yl]oxy}-7-oxoheptanoyl)oxy]-2-({[4-({[2-(pyrrolidin-1-yl)ethyl]carbamoyl}oxy)decanoyl]oxy}methyl)propyl}heptanedioate]	–	–	–	90.5	152.05	6.85	–
C=C(C)C(CC=C(C)C)COC(=O)CCCCCC(=O)OCC(COC(=O)CCCCCC(=O)OCC(CC=C(C)C)C(=C)C)COC(=O)CCC(CCCCCC)OC(=O)NCCN1CCCC1 (stereo not shown) [Example 12, 1-[5-methyl-2-(prop-1-en-2-yl)hex-4-en-1-yl]-7-(2-{[(7-{[5-methyl-2-(prop-1-en-2-yl)hex-4-en-1-yl]oxy}-7-oxoheptanoyl)oxy]methyl}-3-{[4-({[2-(pyrrolidin-1-yl)ethyl]carbamoyl}oxy)decanoyl]oxy}propyl) heptanedioate]	–	–	–	87.7	163	6.68	–
Bis(2-(pent-4-en-1-yl)hept-6-en-1-yl) O,O′-(2-(((4-(((2-(118yrrolidine-1-yl)ethyl)carbamoyl)oxy)decanoyl)oxy)methyl)propane-1,3-diyl) diadipate [Example 3]	82.63	140.85	5.5	–	–	–	–
